Laboratory results: patent US10131652B2, “Pyrimidinyloxy benzene derivatives as herbicides” (E. I. DU PONT DE NEMOURS AND COMPANY, priority 2014, dated 2018)

Columns and labels:
Assay type in all cases: in vivo
[1] = system: barnyardgrass (Echinochloa crus-galli); test: Test B pre-/postemergence plant response
Summary of the method: (§1)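 Steps: plant seeds in loam soil–sand mix; spray soil preemergence, and in parallel spray 2–10 cm one- to two-leaf plants postemergence; hold ~10 days in greenhouse; visually rate injury against untreated controls (0 = no effect, 100 = complete control).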

corn (Zea mays) = test: Test B pre-/postemergence plant response
Summary of the method: as §1

[2] = system: giant foxtail (Setaria faberii); test: Test B pre-/postemergence plant response
Summary of the method: as §1

[3] = system: pigweed (Amaranthus retroflexus); test: Test B pre-/postemergence plant response
Summary of the method: as §1

[4] = system: wheat (Triticum aestivum); test: Test B pre-/postemergence plant response
Summary of the method: as §1

[5] = system: barnyardgrass (Echinochloa crus-galli); test: Test D pre-/postemergence plant response; details: Postemergence; for Barnyardgrass plant response rating: scale 0 to 100 (0 no effect, 100 complete control); for Plant response rating, Barnyardgrass: scale 0 to 100, 0 no effect, 100 complete control
Summary of the method: (§2)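 Seeds were planted in a loam and sand blend and sprayed preemergence. In parallel, seedlings grown in peat moss/vermiculite medium were sprayed postemergence at 2 to 18 cm height. Both used a surfactant-containing non-phytotoxic solvent. Greenhouse ratings at 13 to 15 days used a 0–100 control scale.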

[6] = system: blackgrass (Alopecurus myosuroides); test: Test D pre-/postemergence plant response; details: Postemergence; for Blackgrass plant response rating: scale 0 to 100 (0 no effect, 100 complete control); for Plant response rating, Blackgrass: scale 0 to 100, 0 no effect, 100 complete control
Summary of the method: as §2

[7] = system: giant foxtail (Setaria faberii); test: Test D pre-/postemergence plant response; details: Postemergence; for Foxtail, Giant plant response rating: scale 0 to 100 (0 no effect, 100 complete control); for Plant response rating, Foxtail, Giant: scale 0 to 100, 0 no effect, 100 complete control
Summary of the method: as §2

[8] = system: johnsongrass (Sorghum halepense); test: Test D pre-/postemergence plant response; details: Postemergence; for Plant response rating, Johnsongrass: scale 0 to 100, 0 no effect, 100 complete control
Summary of the method: as §2

[9] = system: large (Lg) crabgrass (Digitaria sanguinalis); test: Test D pre-/postemergence plant response; details: Postemergence; for Crabgrass, Large plant response rating: scale 0 to 100 (0 no effect, 100 complete control); for Plant response rating, Crabgrass, Large: scale 0 to 100, 0 no effect, 100 complete control
Summary of the method: as §2

[10] = system: morningglory (Ipomoea coccinea); test: Test D pre-/postemergence plant response; details: Postemergence; for Plant response rating, Morningglory: scale 0 to 100, 0 no effect, 100 complete control
Summary of the method: as §2

[11] = system: pigweed (Amaranthus retroflexus); test: Test D pre-/postemergence plant response; details: Postemergence; for Plant response rating, Pigweed: scale 0 to 100, 0 no effect, 100 complete control
Summary of the method: as §2

[12] = system: ragweed (common ragweed, Ambrosia elatior); test: Test D pre-/postemergence plant response; details: Postemergence; for Plant response rating, Ragweed: scale 0 to 100, 0 no effect, 100 complete control
Summary of the method: as §2

soybean (Glycine max) = test: Test D pre-/postemergence plant response; details: Postemergence; for Plant response rating, Soybean: scale 0 to 100, 0 no effect, 100 complete control
Summary of the method: as §2

[13] = system: waterhemp (common waterhemp, Amaranthus rudis); test: Test D pre-/postemergence plant response; details: Postemergence; for Plant response rating, Waterhemp: scale 0 to 100, 0 no effect, 100 complete control
Summary of the method: as §2

[14] = system: yellow nutsedge (Cyperus esculentus); test: Test D pre-/postemergence plant response; details: Postemergence; for Plant response rating, Nutsedge, Yellow: scale 0 to 100, 0 no effect, 100 complete control
Summary of the method: as §2

[15] = 31 g ai/ha, Preemergence, 0 to 100 scale where 0 is no effect and 100 is complete control
[16] = 125 g ai/ha, postemergence, 0 to 100 scale, 0 no effect, 100 complete control
[17] = Postemergence, 31 g ai/ha, 0 to 100 scale (0 no effect, 100 complete control)
[18] = Preemergence, 125 g ai/ha, 0 to 100 scale (0 no effect, 100 complete control)
[19] = 31 g ai/ha, scale 0 to 100 (0 no effect, 100 complete control)

Structure (SMILES): CC(F)(F)c1cc(-c2ccccc2Oc2ncc(Br)cn2)no1 [Compound 149]
- Plant response rating, Barnyardgrass [1, 15]: 10
- Plant response rating, Barnyardgrass [1, 16]: 40
- Plant response rating, Barnyardgrass [1, 17]: 10
- Barnyardgrass plant response rating [1, 18]: 70
- Plant response rating, Corn (corn (Zea mays); [16]): 20
- Plant response rating, Corn (corn (Zea mays); [17]): 10
- Plant response rating, Foxtail, Giant [2, 15]: 70
- Plant response rating, Foxtail, Giant [2, 16]: 60
- Plant response rating, Foxtail, Giant [2, 17]: 10
- Foxtail, Giant plant response rating [2, 18]: 100
- Plant response rating, Pigweed [3, 15]: 80
- Plant response rating, Pigweed [3, 16]: 100
- Plant response rating, Pigweed [3, 17]: 90
- Pigweed plant response rating [3, 18]: 100
- Plant response rating, Wheat [4, 16]: 10
- Plant response rating, Wheat [4, 17]: 0
- Barnyardgrass plant response rating ([5]; 16 g ai/ha): 5
- Barnyardgrass plant response rating ([5]; 31 g ai/ha): 5
- Plant response rating, Barnyardgrass ([5]; 62 g ai/ha): 5
- Plant response rating, Barnyardgrass ([5]; 125 g ai/ha): 10
- Blackgrass plant response rating ([6]; 16 g ai/ha): 0
- Blackgrass plant response rating ([6]; 31 g ai/ha): 0
- Plant response rating, Blackgrass ([6]; 62 g ai/ha): 0
- Plant response rating, Blackgrass ([6]; 125 g ai/ha): 30
- Foxtail, Giant plant response rating ([7]; 16 g ai/ha): 5
- Foxtail, Giant plant response rating ([7]; 31 g ai/ha): 10
- Plant response rating, Foxtail, Giant ([7]; 62 g ai/ha): 10
- Plant response rating, Foxtail, Giant ([7]; 125 g ai/ha): 30
- Johnsongrass plant response rating [8, 19]: 10
- Plant response rating, Johnsongrass ([8]; 62 g ai/ha): 15
- Plant response rating, Johnsongrass ([8]; 125 g ai/ha): 10
- Crabgrass, Large plant response rating ([9]; 16 g ai/ha): 5
- Crabgrass, Large plant response rating ([9]; 31 g ai/ha): 5
- Plant response rating, Crabgrass, Large ([9]; 62 g ai/ha): 10
- Plant response rating, Crabgrass, Large ([9]; 125 g ai/ha): 15
- Morningglory plant response rating [10, 19]: 60
- Plant response rating, Morningglory ([10]; 62 g ai/ha): 70
- Plant response rating, Morningglory ([10]; 125 g ai/ha): 80
- Pigweed plant response rating [11, 19]: 85
- Plant response rating, Pigweed ([11]; 62 g ai/ha): 95
- Plant response rating, Pigweed ([11]; 125 g ai/ha): 90
- Ragweed plant response rating [12, 19]: 30
- Plant response rating, Ragweed ([12]; 62 g ai/ha): 30
- Plant response rating, Ragweed ([12]; 125 g ai/ha): 45
- Soybean plant response rating (soybean (Glycine max); [19]): 40
- Plant response rating, Soybean (soybean (Glycine max); 62 g ai/ha): 65
- Plant response rating, Soybean (soybean (Glycine max); 125 g ai/ha): 65
- Waterhemp plant response rating [13, 19]: 80
- Plant response rating, Waterhemp ([13]; 62 g ai/ha): 95
- Plant response rating, Waterhemp ([13]; 125 g ai/ha): 100
- Nutsedge, Yellow plant response rating [14, 19]: 0
- Plant response rating, Nutsedge, Yellow ([14]; 62 g ai/ha): 5
- Plant response rating, Nutsedge, Yellow ([14]; 125 g ai/ha): 5
